Each structure is given as a SMILES string. Where two headings read alike, the source gives them in different places.

The assay concerns panel of 290 distinct kinases (321 in the larger panel), excluding mutant variants. The note with it: no asterisk: panel of 290 distinct kinases.

Experimental: Competition binding assays used herein were developed, validated and performed as described in Fabian et al., Nature Biotechnology 2005, 23, 329-336. […] The liganded beads were blocked with excess biotin and washed with blocking buffer (SeaBlock (Pierce), 1% BSA, 0.05% Tween 20, 1 mM DTT) to remove unbound ligand and to reduce non-specific binding. […] Test compounds were prepared as 100× stocks in DMSO and rapidly diluted into the aqueous environment. DMSO was added to control assays lacking a test compound. Primary screen interactions were performed in polypropylene 384-well plates in a final volume of 34 μL, while Kd determinations were performed in polystyrene 96-well plates in a final volume of 135 pt. […] The kinase concentration in the eluates was measured by quantitative PCR. Each kinase was tested individually against each compound. Kds were determined using eleven serial threefold dilutions. A selectivity score, which is a quantitative measure of selectivity of a compound against a panel of enzymes, may be calculated for a compound by dividing the number of enzymes for which a compound meets a set criteria, (for example, a binding constant of 100 nM or less), by the total number of enzymes tested. […] (Note, for those compounds tested in a larger kinase panel, as indicated by an asterisk (*) next to the S35 score, the divisor is 321 (i.e. the larger panel contains 321 distinct kinases, excluding mutant variants.)).

On to `COc1cc2ncnc(Oc3cccc(NC(=O)Nc4cc(C(C)(C)C)nn4-c4cc[nH]c(=O)c4)c3)c2cc1OC` [Ex 313, 1-(3-tert-butyl-1-(2-oxo-1,2-dihydropyridin-4-yl)-1H-pyrazol-5-yl)-3-(3-(6,7-dimethoxyquinazolin-4-yloxy)phenyl)urea], for which the S35 result is recorded as “D (D > 0.40)”. Turning to `COc1cc2ncnc(Oc3cccc(NC(=O)Nc4cc(C(C)(C)C)nn4-c4ccccc4Cl)c3)c2cc1OC` [Ex 340, 1-(3-tert-butyl-1-(2-chlorophenyl)-1H-pyrazol-5-yl)-3-(3-(6,7-dimethoxyquinazolin-4-yloxy)phenyl)urea], the S35 result is “D (D > 0.40)”. Turning to `COc1cc2ncnc(Sc3cccc(NC(=O)Nc4cc(C(C)(C)C)nn4-c4ccccn4)c3)c2cc1OC` [Ex 345, 1-(3-tert-butyl-1-(pyridin-2-yl)-1H-pyrazol-5-yl)-3-(3-(6,7-dimethoxyquinazolin-4-ylthio)phenyl)urea], the S35 result is recorded as “B (0.10 < B ≦ 0.20)”.

Take `COc1cc2ncnc(Oc3cccc(NC(=O)Nc4cc(C(C)(C)C(F)(F)F)nn4-c4ccccc4)c3)c2cc1OC` [Ex 306, 1-(3-(6,7-dimethoxyquinazolin-4-yloxy)phenyl)-3-(1-phenyl-3-(1,1,1-trifluoro-2-methylpropan-2-yl)-1H-pyrazol-5-yl)urea]: the S35 result is on record as “D (D > 0.40)”. Regarding `COc1cc2ncnc(Sc3cccc(NC(=O)Nc4cc(C(C)C)nn4-c4cccnc4)c3)c2cc1OC` [Ex 351, 1-(3-(6,7-dimethoxyquinazolin-4-ylthio)phenyl)-3-(3-isopropyl-1-(pyridin-3-yl)-1H-pyrazol-5-yl)urea], the S35 entry is reported as “C (0.20 < C ≦ 0.40)”.

With `CCc1cc(NC(=O)Nc2cccc(Oc3ncnc4cc(OC)c(OC)cc34)c2)n(-c2ccccc2)n1` [Ex 352, 1-(3-(6,7-dimethoxyquinazolin-4-yloxy)phenyl)-3-(3-ethyl-1-phenyl-1H-pyrazol-5-yl)urea], the S35 result is given as “C (0.20 < C ≦ 0.40)”. In the case of `CCn1nc(C(C)(C)C)cc1NC(=O)Nc1cccc(Sc2ncnc3cc(OC)c(OC)cc23)c1` [Ex 321, 1-(3-tert-butyl-1-ethyl-1H-pyrazol-5-yl)-3-(3-(6,7-dimethoxyquinazolin-4-ylthio)phenyl)urea], the S35 result is “C (0.20 < C ≦ 0.40)”.

As to `COc1cc2ncnc(Oc3cccc(NC(=O)Nc4cc(C5CCC5)nn4-c4ccccc4)c3)c2cc1OC` [Ex 355, 1-(3-cyclobutyl-1-phenyl-1H-pyrazol-5-yl)-3-(3-(6,7-dimethoxyquinazolin-4-yloxy)phenyl)urea], the S35 result is listed as “C (0.20 < C ≦ 0.40)”. In the case of `COc1cc2ncnc(Sc3cccc(NC(=O)Nc4cc(C(F)(F)F)nn4-c4cccc(C)c4)c3)c2cc1OC` [Ex 339, 1-(3-(6,7-dimethoxyquinazolin-4-ylthio)phenyl)-3-(1-m-tolyl-3-(trifluoromethyl)-1H-pyrazol-5-yl)urea], the S35 result is recorded as “C (0.20 < C ≦ 0.40)”. As to `COc1cc2ncnc(Sc3cccc(NC(=O)Nc4cc(C(C)(C)C)nn4-c4ccncc4)c3)c2cc1OC` [Ex 337, 1-(3-tert-butyl-1-(pyridin-4-yl)-1H-pyrazol-5-yl)-3-(3-(6,7-dimethoxyquinazolin-4-ylthio)phenyl)urea], the S35 result is listed as “D (D > 0.40)”. For the molecule `COc1cc2ncnc(Sc3cccc(NC(=O)Nc4cc(C(C)(C)C)nn4-c4ccccc4C)c3)c2cc1OC` [Ex 343, 1-(3-tert-butyl-1-o-tolyl-1H-pyrazol-5-yl)-3-(3-(6,7-dimethoxyquinazolin-4-ylthio)phenyl)urea], the S35 entry is “C (0.20 < C ≦ 0.40)”. Consider `COc1cc2ncnc(Oc3cccc(NC(=O)Nc4cc(C(C)C)nn4-c4cncc(F)c4)c3)c2cc1OC` [Ex 314, 1-(3-(6,7-dimethoxyquinazolin-4-yloxy)phenyl)-3-(1-(5-fluoropyridin-3-yl)-3-isopropyl-1H-pyrazol-5-yl)urea], for which the S35 result is recorded as “D (D > 0.40)”.

For the molecule `COc1cc2ncnc(Oc3cccc(NC(=O)Nc4cc(C(C)(C)C)nn4-c4cccnc4)c3)c2cc1OC` [Ex 322, 1-(3-tert-butyl-1-(pyridin-3-yl)-1H-pyrazol-5-yl)-3-(3-(6,7-dimethoxyquinazolin-4-yloxy)phenyl)urea], the S35 entry is listed as “D (D > 0.40)”. Take `COc1cc2ncnc(Sc3cccc(NC(=O)Nc4cc(C(C)(C)C)nn4C4CCCCC4)c3)c2cc1OC` [Ex 331, 1-(3-tert-butyl-1-cyclohexyl-1H-pyrazol-5-yl)-3-(3-(6,7-dimethoxyquinazolin-4-ylthio)phenyl)urea]: the S35 result is given as “B (0.10 < B ≦ 0.20)”. On to `COc1cc2ncnc(Oc3cccc(NC(=O)Nc4cc(C5CC5)nn4-c4ccccc4)c3)c2cc1OC` [Ex 353, 1-(3-cyclopropyl-1-phenyl-1H-pyrazol-5-yl)-3-(3-(6,7-dimethoxyquinazolin-4-yloxy)phenyl)urea], for which the S35 result is listed as “C (0.20 < C ≦ 0.40)”.

`COc1cc2ncnc(Oc3cccc(NC(=O)Nc4cc(C(C)(C)C)nn4-c4ccncc4)c3)c2cc1OC` [Ex 336, 1-(3-tert-butyl-1-(pyridin-4-yl)-1H-pyrazol-5-yl)-3-(3-(6,7-dimethoxyquinazolin-4-yloxy)phenyl)urea]: the S35 entry is reported as “D (D > 0.40)”. Still for that read-out and setting: then `COc1ccc(-n2nc(C(C)C)cc2NC(=O)Nc2cccc(Sc3ncnc4cc(OC)c(OC)cc34)c2)cc1` [Ex 349, 1-(3-(6,7-dimethoxyquinazolin-4-ylthio)phenyl)-3-(3-isopropyl-1-(4-methoxyphenyl)-1H-pyrazol-5-yl)urea], with “C (0.20 < C ≦ 0.40)”. Regarding `COc1cc2ncnc(Sc3cccc(NC(=O)Nc4cc(C5CC5)nn4-c4ccccc4)c3)c2cc1OC` [Ex 354, 1-(3-cyclopropyl-1-phenyl-1H-pyrazol-5-yl)-3-(3-(6,7-dimethoxyquinazolin-4-ylthio)phenyl)urea], the S35 entry is on record as “C (0.20 < C ≦ 0.40)”. On to `COc1ccc(-n2nc(C(C)C)cc2NC(=O)Nc2cccc(Oc3ncnc4cc(OC)c(OC)cc34)c2)cc1` [Ex 348, 1-(3-(6,7-dimethoxyquinazolin-4-yloxy)phenyl)-3-(3-isopropyl-1-(4-methoxyphenyl)-1H-pyrazol-5-yl)urea], for which the S35 result is “D (D > 0.40)”. As for `COc1cc(OC2CCOCC2)c2c(Sc3cccc(NC(=O)Nc4cc(C(C)(C)C)on4)c3)ncnc2c1`, for the setting “fraction of kinases inhibited 65% or greater”, the S35 result is listed as “C (0.20 < C ≦ 0.40)”. On to `COc1cc2ncnc(Oc3cccc(NC(=O)Nc4cc(C(C)(C)C)nn4-c4ccccc4C)c3)c2cc1OC` [Ex 342, 1-(3-tert-butyl-1-o-tolyl-1H-pyrazol-5-yl)-3-(3-(6,7-dimethoxyquinazolin-4-yloxy)phenyl)urea], for which the S35 result is recorded as “D (D > 0.40)”. For the molecule `COc1cc2ncnc(Oc3cccc(NC(=O)Nc4cc(C(C)(C)C)nn4C(C)C)c3)c2cc1OC` [Ex 334, 1-(3-tert-butyl-1-isopropyl-1H-pyrazol-5-yl)-3-(3-(6,7-dimethoxyquinazolin-4-yloxy)phenyl)urea], the S35 result is given as “C (0.20 < C ≦ 0.40)”. For `COc1cc2ncnc(Oc3cccc(NC(=O)Nc4cc(C(C)(C)C#N)nn4-c4ccccc4)c3)c2cc1OC` [Ex 308, 1-(3-(2-cyanopropan-2-yl)-1-phenyl-1H-pyrazol-5-yl)-3-(3-(6,7-dimethoxyquinazolin-4-yloxy)phenyl)urea], the S35 result is on record as “D (D > 0.40)”. Consider `COc1cc2ncnc(Sc3cccc(NC(=O)Nc4cc(C(C)(C)C)nn4-c4ccccc4Cl)c3)c2cc1OC` [Ex 341, 1-(3-tert-butyl-1-(2-chlorophenyl)-1H-pyrazol-5-yl)-3-(3-(6,7-dimethoxyquinazolin-4-ylthio)phenyl)urea], for which the S35 result was “C (0.20 < C ≦ 0.40)”.

(Values after patent US9320739B2 (AMBIT BIOSCIENCES CORPORATION, priority 2008, dated 2016).)
